According to PMC3726599, “A Metabolically-Stabilized Phosphonate Analog of Lysophosphatidic Acid Attenuates Collagen-Induced Arthritis” (PLoS ONE, 2013):

Columns and labels:
recombinant ATX = target: T1, recombinant ATX (Homo sapiens, UniProt Q13822); assay: FS-3 ATX activity assay; format: biochemical
T1 construct: purchased SinoBiological Inc (main data); R&D (additional Km values)
Experimental: Inhibition of ATX activity by BrP-LPA was determined using the cleavage of the ATX-specific fluorogenic substrate FS-3 (Echelon Biosciences, UT, USA). Assays were conducted in a final volume of 100 μl in the presence of 140 mM NaCl, 5 mM KCl, 1 mM MgCl2 and 50 mM Tris, pH 8.0 with the use of 1 µM FS-3, 2 nM ATX from Echelon and increasing concentrations of BrP-LPA. Reactions were brought up to 100 µl with ddH2O and were then incubated at 37°C in a Tecan Infinite 200 microplate reader (Tecan Trading AG, Switzerland) set to make fluorescence measurements every 1 min for a total period of 30 min. Autotaxin activity was quantified by measuring the rate of increase in fluorescence at 528 nm with excitation at 485 nm. At the end of the measurement, each data point was plotted on a graph of fluorescence versus time. A linear regression was fitted in the linear portion of the graph (3–20 min).
The biochemistry of lyso-PLD was assessed by following the kinetics data using a wide panel of different ATX substrates [FS-3, different LPC species (14:0, 16:0, 18:0, 18:1)], three different recombinant ATX proteins (R&D, Sino-Biological and Echelon) and three different ATX activity assays (FS-3, TOOS, Amplex Red). The ATX activity was measured at different substrate concentrations (typically from 1-1000 μM) in order to examine whether ATX follows Michaelis-Menten kinetics. […] Km and Vmax were evaluated from the rectangular hyperbola curve with the use of GraphPad software.
For in vitro inhibition measurements, BrP-LPA was dissolved in water as a stock solution (4 mM) and appropriate dilutions were made in water. […] The in vitro inhibition of ATX by BrP-LPA was evaluated with three different assays (FS-3, Amplex Red, and TOOS). […]
The inhibition model (competitive, noncompetitive, or mixed type inhibition) was evaluated by graphical analysis with Lineweaver–Burk double reciprocal plots (1/[velocity] versus 1/[substrate]) and Cornish-Bowden plot ([substrate]/[velocity] versus [Inhibitor]). […]

LPA3 = details: Ca++ mobilization, RH7777 cells; kind of constant not given; read-out: inhibition of LPA3; cited from earlier work
[1] = system: orthotopic breast cancer xenograft model; parameters: method as in PMID 19509223; details: in vivo; cited from earlier work
[2] = system: non-small cell lung cancer xenograft; parameters: method as in PMID 20143443; details: three-dimensional non-small cell lung cancer xenograft; cited from earlier work

% Inhibition at 10 μΜ (recombinant ATX; FS-3 1 μΜ, BrP-LPA 10 μΜ): 95%
IC50 (recombinant ATX; FS-3 assay, [S] 1 μΜ FS-3, Echelon ATX 2 nM, mean±std): 400 ± 30 nM
Ki (recombinant ATX; FS-3 substrate, Cheng-Prusoff from IC50): 300 ± 100 nM
SMILES: CCCCCCCCCCCCCCCC(=O)OC[C@@H](O)CC(Br)P(=O)(O)O (stereo partly drawn) [BrP-LPA, 1-bromo-3(S)-hydroxy-4-(palmitoyloxy)butyl-phosphonate]
IC50 (LPA3): 1200 nM
tumor regression [1]: cause tumor regression in vivo
tumor growth and angiogenesis [2]: inhibit tumor growth and angiogenesis
